Laboratory results published in ChEMBL document CHEMBL1201862, “PubChem BioAssay data set” (2004).
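Cells were grown in 96-well plates and exposed to each compound for 48 hours at five concentrations; endpoints were interpolated linearly between bracketing concentrations, or set to the highest concentration if not reached. The concentration for 50% growth inhibition is given as GI50.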 Calls of active or inactive are those of the source. No stated cut-off is given here; in the data, active = GI50 up to about 1.1 µM and inactive = higher.

Legend:
Assay in all cases: NCI-60 cell line screen, 48 h
786-0 = test system: 786-0
ACHN = test system: ACHN
CAKI-1 = test system: CAKI-1
LOX IMVI = test system: LOX IMVI
M14 = test system: M14
MDA-MB-231 = test system: MDA-MB-231
MDA-MB-435 = test system: MDA-MB-435
NCI-H460 = test system: NCI-H460
NCI-H522 = test system: NCI-H522
OVCAR-3 = test system: OVCAR-3
RPMI-8226 = test system: RPMI-8226
RXF 393 = test system: RXF 393
SF-268 = test system: SF-268
SF-295 = test system: SF-295
SK-MEL-28 = test system: SK-MEL-28
SK-MEL-2 = test system: SK-MEL-2
SK-OV-3 = test system: SK-OV-3
SNB-19 = test system: SNB-19
T47D = test system: T47D
UACC-62 = test system: UACC-62

Measured: GI50

CCN(CC)CCn1c2ccccc2c(=O)c2c(O)ccc(O)c21
inactive: 786-0 34.1 µM | ACHN 33.7 µM | CAKI-1 35.5 µM | LOX IMVI 15.1 µM | M14 42 µM | MDA-MB-231 16.1 µM | MDA-MB-435 18.6 µM | NCI-H460 > 57.9 µM | NCI-H522 15.4 µM | OVCAR-3 31.5 µM | RPMI-8226 19.9 µM | RXF 393 19 µM | SF-268 30.5 µM | SF-295 22.5 µM | SK-MEL-28 33.2 µM | SK-MEL-2 33.4 µM | SK-OV-3 69.8 µM | SNB-19 58.9 µM | T47D 18.2 µM | UACC-62 3.48 µM

CCOC(=O)/C(C#N)=C/c1ccc2c(c1)CC1(C2)Cc2cc(CC)c(C(C)O)cc2C1 (stereo not given)
inactive: 786-0 17.3 µM | ACHN 30.3 µM | CAKI-1 57.9 µM | LOX IMVI 6.95 µM | M14 5.32 µM | MDA-MB-231 10.5 µM | MDA-MB-435 2.14 µM | NCI-H460 23.2 µM | NCI-H522 47 µM | OVCAR-3 8.04 µM | RPMI-8226 6.84 µM | RXF 393 6.79 µM | SF-268 13 µM | SF-295 15.7 µM | SK-MEL-28 12.8 µM | SK-MEL-2 7.21 µM | SK-OV-3 15.4 µM | SNB-19 15.1 µM | T47D 27.9 µM | UACC-62 7.83 µM

CC(=O)c1c2c(c3ccccc3c1O)O[C@@H]1OCC[C@H]21
inactive: 786-0 > 100 µM | ACHN > 100 µM | CAKI-1 > 100 µM | LOX IMVI > 100 µM | M14 > 100 µM | MDA-MB-231 > 100 µM | MDA-MB-435 > 100 µM | NCI-H460 > 100 µM | NCI-H522 > 100 µM | OVCAR-3 > 100 µM | RPMI-8226 94.6 µM | RXF 393 > 100 µM | SF-268 > 100 µM | SF-295 > 100 µM | SK-MEL-28 > 100 µM | SK-MEL-2 > 100 µM | SK-OV-3 > 100 µM | SNB-19 > 100 µM | T47D > 100 µM | UACC-62 > 100 µM

CC(=O)OCC1OC(Nn2c(=O)[nH]c3ccccc3c2=O)C(OC(C)=O)C(OC(C)=O)C1OC(C)=O (stereo not given)
inactive: 786-0 > 100 µM | ACHN > 100 µM | CAKI-1 > 100 µM | LOX IMVI > 100 µM | M14 > 100 µM | MDA-MB-231 > 100 µM | MDA-MB-435 > 100 µM | NCI-H460 27.2 µM | NCI-H522 > 100 µM | OVCAR-3 > 100 µM | RPMI-8226 > 100 µM | RXF 393 > 100 µM | SF-268 > 100 µM | SF-295 > 100 µM | SK-MEL-28 > 100 µM | SK-MEL-2 > 100 µM | SK-OV-3 > 100 µM | SNB-19 > 100 µM | T47D 35.5 µM | UACC-62 > 100 µM

CCN(CC)CCNc1ccc2ncn3c4cc(OC)c(OC)c(O)c4c(=O)c1c23
inactive: 786-0 4.01 µM | ACHN 3.76 µM | CAKI-1 14 µM | LOX IMVI 1.24 µM | M14 14.2 µM | MDA-MB-231 5.93 µM | MDA-MB-435 10 µM | NCI-H460 1.39 µM | NCI-H522 12.6 µM | OVCAR-3 13 µM | RPMI-8226 3.03 µM | RXF 393 1.36 µM | SF-268 3.49 µM | SF-295 10.4 µM | SK-MEL-28 14.4 µM | SK-MEL-2 20.4 µM | SK-OV-3 12.5 µM | SNB-19 7.59 µM | T47D 21.8 µM | UACC-62 16.6 µM

CCCCC1Cc2cc(O)ccc2-c2n1c1cc(O)ccc1[n+]2C.CCCCC1Cc2cc(O)ccc2-c2n1c1ccc(O)cc1[n+]2C (stereo not given)
inactive: 786-0 26.5 µM | ACHN 56 µM | CAKI-1 > 100 µM | LOX IMVI 39 µM | M14 37.9 µM | MDA-MB-231 48 µM | MDA-MB-435 19 µM | NCI-H460 37.9 µM | NCI-H522 2.99 µM | OVCAR-3 10.7 µM | RPMI-8226 9.73 µM | RXF 393 34 µM | SF-268 4.57 µM | SF-295 4.82 µM | SK-MEL-28 6.64 µM | SK-MEL-2 32.7 µM | SK-OV-3 57.3 µM | SNB-19 1.49 µM | T47D 22.3 µM | UACC-62 24.4 µM

O=C(OC(/C=C/c1ccccc1)P1(=O)N(Cc2ccccc2)[C@@H]2CCCC[C@H]2N1Cc1ccccc1)c1ccccc1 (stereo not given in full)
inactive: 786-0 4.38 µM | ACHN 3.81 µM | CAKI-1 3.56 µM | LOX IMVI 3.57 µM | M14 3.69 µM | MDA-MB-231 2.82 µM | MDA-MB-435 3.66 µM | NCI-H460 2.91 µM | NCI-H522 3.17 µM | OVCAR-3 3.93 µM | RPMI-8226 2.21 µM | RXF 393 3.78 µM | SF-268 6.37 µM | SF-295 4.09 µM | SK-MEL-28 9.82 µM | SK-MEL-2 2.25 µM | SK-OV-3 5.06 µM | SNB-19 5.43 µM | T47D 4.43 µM | UACC-62 5.3 µM

c1ccc(CC2(c3cc4ccccc4[nH]3)OCCO2)nc1
inactive: 786-0 > 100 µM | ACHN > 100 µM | CAKI-1 > 100 µM | LOX IMVI 34.7 µM | M14 > 100 µM | MDA-MB-231 > 100 µM | MDA-MB-435 > 100 µM | NCI-H460 > 100 µM | NCI-H522 70.8 µM | OVCAR-3 90.6 µM | RPMI-8226 > 100 µM | RXF 393 88.1 µM | SF-268 > 100 µM | SF-295 58.1 µM | SK-MEL-28 > 100 µM | SK-MEL-2 > 100 µM | SK-OV-3 > 100 µM | SNB-19 > 100 µM | T47D > 100 µM | UACC-62 > 100 µM
